The NIST ThermoML archive (doi:10.1021/acs.jced.7b00005)
Numbers after ± are expanded uncertainties.

Conditions: Liquid, Ebulliometric method (Recirculating still)

For `CC#N` [acetonitrile], the “vapor or sublimation pressure” value (295.25 K) was 10 ± 0.3 kPa and the “vapor or sublimation pressure” value (295.4 K) was 10 ± 0.3 kPa.
